Measured values as given in patent US7205295B2, “Benzoxazin-3-ones and derivatives thereof as therapeutic agents” (Warner-Lambert Company LLC, priority 2002, dated 2007).

Assays:
[1] = target: T1, PI3Kγ (p101/p110γ protein) (Homo sapiens, UniProt P48736); assay: PI3Kγ In Vitro Kinase Assay; format: biochemical; conditions: purified recombinant p101/p110γ with G protein β1/γ2 subunits; 20 μM ATP, 25 μM PIP2; 20 minutes at room temperature
T1 construct: HA; made in house; host or cells: Spodoptera frugiperda (Sf9) cells, baculovirus co-infection
T1 sequence (P48736 whole entry, species assumed): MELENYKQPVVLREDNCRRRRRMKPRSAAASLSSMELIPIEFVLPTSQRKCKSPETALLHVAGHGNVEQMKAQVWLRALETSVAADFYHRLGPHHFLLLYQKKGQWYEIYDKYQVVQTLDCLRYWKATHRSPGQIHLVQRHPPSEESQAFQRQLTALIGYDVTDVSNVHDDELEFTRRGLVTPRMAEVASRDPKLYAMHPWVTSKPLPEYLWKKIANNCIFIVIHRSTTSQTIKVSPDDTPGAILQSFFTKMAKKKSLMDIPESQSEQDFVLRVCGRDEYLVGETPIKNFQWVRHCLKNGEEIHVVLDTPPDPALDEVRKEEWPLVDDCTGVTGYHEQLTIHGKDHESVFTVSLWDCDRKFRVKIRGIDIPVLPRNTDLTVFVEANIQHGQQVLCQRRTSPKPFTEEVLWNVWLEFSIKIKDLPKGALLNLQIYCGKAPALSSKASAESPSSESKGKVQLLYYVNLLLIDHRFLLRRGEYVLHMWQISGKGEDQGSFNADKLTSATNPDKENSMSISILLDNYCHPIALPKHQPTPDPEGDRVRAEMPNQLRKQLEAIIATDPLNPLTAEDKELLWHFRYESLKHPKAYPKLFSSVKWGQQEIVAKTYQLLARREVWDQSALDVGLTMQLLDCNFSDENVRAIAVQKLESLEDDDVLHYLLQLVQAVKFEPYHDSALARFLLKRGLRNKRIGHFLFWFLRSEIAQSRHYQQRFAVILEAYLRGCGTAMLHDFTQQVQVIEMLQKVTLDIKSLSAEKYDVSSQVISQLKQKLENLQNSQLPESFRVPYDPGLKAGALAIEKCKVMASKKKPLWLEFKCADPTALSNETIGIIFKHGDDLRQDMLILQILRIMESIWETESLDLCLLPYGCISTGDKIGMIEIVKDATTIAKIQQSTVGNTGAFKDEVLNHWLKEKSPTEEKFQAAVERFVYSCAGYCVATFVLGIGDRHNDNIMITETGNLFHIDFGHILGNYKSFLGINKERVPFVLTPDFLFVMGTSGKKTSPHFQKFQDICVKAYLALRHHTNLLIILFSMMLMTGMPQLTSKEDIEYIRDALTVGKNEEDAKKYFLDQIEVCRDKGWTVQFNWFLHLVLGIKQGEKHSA
T1 sequence (Q8WYR1 whole entry partner, species assumed): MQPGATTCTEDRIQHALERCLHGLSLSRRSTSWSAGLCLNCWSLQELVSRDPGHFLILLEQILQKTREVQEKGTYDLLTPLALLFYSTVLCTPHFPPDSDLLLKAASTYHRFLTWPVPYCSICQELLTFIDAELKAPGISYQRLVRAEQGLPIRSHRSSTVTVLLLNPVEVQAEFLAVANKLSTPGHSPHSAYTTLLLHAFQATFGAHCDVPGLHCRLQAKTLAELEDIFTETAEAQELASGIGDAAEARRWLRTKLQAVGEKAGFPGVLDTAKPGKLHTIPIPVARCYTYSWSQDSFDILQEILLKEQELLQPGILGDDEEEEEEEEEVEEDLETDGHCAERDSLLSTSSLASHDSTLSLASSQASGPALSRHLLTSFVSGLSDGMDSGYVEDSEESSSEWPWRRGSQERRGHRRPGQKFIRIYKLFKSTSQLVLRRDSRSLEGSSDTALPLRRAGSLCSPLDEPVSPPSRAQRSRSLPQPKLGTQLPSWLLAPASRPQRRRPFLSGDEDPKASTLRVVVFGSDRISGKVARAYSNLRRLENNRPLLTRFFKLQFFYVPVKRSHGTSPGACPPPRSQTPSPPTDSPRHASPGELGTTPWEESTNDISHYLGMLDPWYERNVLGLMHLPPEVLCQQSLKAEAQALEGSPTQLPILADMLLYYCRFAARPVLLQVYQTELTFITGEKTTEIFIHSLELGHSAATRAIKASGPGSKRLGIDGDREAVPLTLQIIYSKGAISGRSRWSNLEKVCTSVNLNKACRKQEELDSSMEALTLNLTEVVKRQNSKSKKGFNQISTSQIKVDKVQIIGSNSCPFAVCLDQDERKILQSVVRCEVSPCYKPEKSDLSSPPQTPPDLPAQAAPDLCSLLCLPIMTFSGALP
Summary of the method: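 Reactions ran 20 min at room temperature, pairing lipid micelles (25 μM PIP2, 300 μM PE, 0.02% Na-cholate, 10 mM MgCl2) with 20 μM ATP including [γ-32P]ATP. The enzyme was recombinant p101/p110γ (2.7 nM) with G protein β1/γ2 (57.7 nM). [32P]PIP3 product was stopped with H3PO4, filtered and scintillation counted.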

`O=C1NC(=S)SC1=Cc1ccc2c(c1)N(CCc1ccc(Cl)cc1)C(=O)CO2` [Example 134, 4-[2-(4-Chloro-phenyl)-ethyl]-6-(4-oxo-2-thioxo-thiazolidin-5-ylidenemethyl)-4H-1,4-benzoxazin-3-one] gave an IC50 [1] of 5 nM and a melting point of 278 to 280 °C.

`Cc1cccc(CN2C(=O)COc3ccc(C=C4SC(=S)NC4=O)cc32)c1C` [Example 98, 4-(2,3-Dimethyl-benzyl)-6-(4-oxo-2-thioxo-thiazolidin-5-ylidenemethyl)-4H-benzo[1,4]oxazin-3-one] showed an IC50 [1] of 5 nM and a melting point greater than 300 °C.

For `O=C1NC(=S)SC1=Cc1ccc2c(c1)N(CCc1cccc(C(F)(F)F)c1)C(=O)CO2` [Example 106, 6-(Oxo-2-thioxo-thiazolidin-5-ylidenmethyl)-4-[2-(3-trifluoromethyl-phenyl)-ethyl]-4H-benzo[1,4]oxazin-3-one], the IC50 [1] was 9 nM and the melting point was 241 to 243 °C.

Work on `COc1ccc(C(C)(C)C)cc1CN1C(=O)COc2ccc(C=C3SC(=S)NC3=O)cc21` [Example 95, 4-(5-tert-Butyl-2-methoxy-benzyl)-6-(4-oxo-2-thioxo-thiazolidin-5-ylidenemethyl)-4H-1,4-benzoxazin-3-one] yielded an IC50 [1] of 225 nM and a melting point of 255 to 257 °C.

`O=C1NC(=S)SC1=Cc1ccc2c(c1)N(OCc1ccc(C(F)(F)F)cc1)C(=O)CO2` [Example 207, 6-(4-Oxo-2-thioxo-thiazolidin-5-ylidenemethyl)-4-(4-trifluoromethyl-benzyloxy)-4H-benzo[1,4]oxazin-3-one] showed an IC50 [1] of 2 nM and a melting point greater than 300 °C.

Molecule `O=C1NC(=S)SC1=Cc1ccc2c(c1)N(OCC1CCCCC1)C(=O)CO2` [Example 208, 4-Cyclohexylmethoxy-6-(4-oxo-2-thioxo-thiazolidin-5-ylidenemethyl)-4H-benzo[1,4]oxazin-3-.one] has an IC50 [1] of 2 nM and a melting point of 249 to 250 °C.

In the case of `O=C1NC(=S)SC1=Cc1ccc2c(c1)N(CCc1cccc(Cl)c1)C(=O)CO2` [Example 135, 4-[2-(3-Chloro-phenyl)-ethyl]-6-(4-oxo-2-thioxo-thiazolidin-5-ylidenemethyl)-4H-1,4-benzoxazin-3-one], the IC50 [1] is reported as 5 nM and the melting point is reported as 280 to 282 °C.

For `O=C1NC(=S)SC1=Cc1ccc2c(c1)N(Cc1cccc(-c3ccncc3)c1)C(=O)CO2` [Example 114, 6-(4-Oxo-2-thioxo-thiazolidin-5-ylidenemethyl)-4-(3-pyridin-4-yl-benzyl)-4H-benzo[1,4]-oxazin-3-one], the IC50 [1] was 5 nM and the melting point was 297 to 299 °C.

Work on `CC(C)(C)c1cc(CON2C(=O)COc3ccc(C=C4SC(=S)NC4=O)cc32)cc(C(C)(C)C)n1` [Example 209, 4-(2,6-Di-tert-butyl-pyridin-4-ylmethoxy)-6-(4-oxo-2-thioxo-thiazolidin-5-ylidenemethyl)-4H-benzo[1,4]oxazin-3-one] yielded an IC50 [1] of 74 nM and a melting point greater than 300 °C.

Molecule `O=C1NC(=S)SC1=Cc1ccc2c(c1)N(CCc1ccc(Cl)cc1Cl)C(=O)CO2` [Example 105, 4-[2-(2,4-Dichloro-phenyl)-ethyl]-6-(4-oxo-2-thioxo-thiazolidin-5-ylidenmethyl)-4H-benzo[1,4]oxazin-3-one] has an IC50 [1] of 5 nM and a melting point of 267 to 269 °C.

Work on `CC(C)(C)c1ccc(CCN2C(=O)COc3ccc(C=C4SC(=S)NC4=O)cc32)cc1` [Example 131, 4-[2-(4-tert-Butyl-phenyl)-ethyl]-6-(4-oxo-2-thioxo-thiazolidin-5-ylidenemethyl)-4H-benzo[1,4]-oxazin-3-one] yielded an IC50 [1] of 39 nM and a melting point of 283 to 285 °C.
